This test concerns 2C TCR mouse CD8+ T cells, vesicle binding, flow cytometry. Nature of the test: inhibitors of CD8+ T cell LFA-1/ICAM-1 adhesion – powder samples, single concentration, mouse 2C TCR, flow cytometry, confirmation (AID 504568).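 For all read-outs here: lower values mean less vesicle binding and point to an inhibitor.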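 For double-positive events (T cell-vesicle binding): the gate for binding is set so anti-LFA-1 blocked control wells show 10% double positives.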 The following applies: stronger effect = lower value; for mean fluorescence percent response: measured here: CD8+ cell vesicle fluorescence mean. A general note: In flow cytometry, cells or beads pass a laser one at a time.

The source made the active and inactive calls.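 Rule for the calls: active = binding readouts below 60% of the midpoint between blocked and unblocked controls, with summed weighted score above 1; inactive = the rest.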

As for `Cc1ccc(OCCOC(=O)c2cc(S(=O)(=O)N3CCCCC3)ccc2N2CCOCC2)cc1`, the double-positive events (T cell-vesicle binding) was 20.9% and the mean fluorescence percent response was 134%.

As to `CC(C)(C)NC(=O)COc1ccc(CNCc2cccnc2)cc1`, the double-positive events (T cell-vesicle binding) is 25.7% (inactive) and the mean fluorescence percent response was 148%.

As for `CCOC(=O)c1c(C=O)c2ccccc2n1CC`, the double-positive events (T cell-vesicle binding) is 20.5% and the mean fluorescence percent response is 148%.

As for `c1ccc(COc2ccc(OCCN3CCCCC3)cc2)cc1`, the double-positive events (T cell-vesicle binding) was 20.7% and the mean fluorescence percent response is 133%.

Take `Cc1cc(=O)oc2c3c(cc(OCC(=O)NCc4ccncc4)c12)OC(C)(C)CC3`: the double-positive events (T cell-vesicle binding) is 20.8% and the mean fluorescence percent response worked out at 128%.

Consider `CCOC(=O)N1CCN(C(=O)c2ccc(CS(=O)Cc3ccc(C)cc3)o2)CC1` (centres undefined), for which the double-positive events (T cell-vesicle binding) is 26.5% (inactive) and the mean fluorescence percent response is 146%.

`CCCCOc1ccc(C(=O)NCC(=O)N2CCN(C(=O)c3ccco3)CC2)cc1`: the double-positive events (T cell-vesicle binding) was 25.2% and the mean fluorescence percent response came out at 133%.

As for `O=C(NCC1CCCCC1)c1ccc(Cl)c(S(=O)(=O)N2CCOCC2)c1`, the double-positive events (T cell-vesicle binding) was 17.8% and the mean fluorescence percent response is 136%.

For the compound `COc1ccc(S(=O)(=O)N2CCCC2C(=O)Nc2ccc(C(C)=O)cc2)cc1` (centres undefined), the double-positive events (T cell-vesicle binding) is 26.1% (inactive) and the mean fluorescence percent response came out at 142%.

For `CCOc1ccc(CCNC(=O)CCS(=O)(=O)c2ccc(C)cc2)cc1OCC`, the double-positive events (T cell-vesicle binding) is 23.5% and the mean fluorescence percent response was determined as 117%.

On to `Cc1sc2ncnc(NCC(C)(C)N3CCOCC3)c2c1C`, for which the double-positive events (T cell-vesicle binding) was 20.2% and the mean fluorescence percent response worked out at 126%.

For the compound `COc1cccc(NC(=O)Nc2ccc3nc(C)c(C)nc3c2)c1`, the double-positive events (T cell-vesicle binding) is 18.7% and the mean fluorescence percent response came to 113%.

Regarding `O=C(NCc1cccnc1)C(=O)NCC(c1ccco1)N1CCN(c2ccccc2)CC1` (centres undefined), the double-positive events (T cell-vesicle binding) was 26.8% (inactive) and the mean fluorescence percent response is 149%.

Turning to `COc1ccccc1CNC(=O)COc1ccc(C)cc1`, the double-positive events (T cell-vesicle binding) was 24.8% (inactive) and the mean fluorescence percent response came out at 173%.

With `NC(=O)C1CCN(c2nc(-c3cc4ccccc4o3)cs2)CC1`, the double-positive events (T cell-vesicle binding) is 26.2% (inactive) and the mean fluorescence percent response was 140%.

In the case of `O=C(COC(=O)C12CC3CC(CC(Br)(C3)C1)C2)Nc1cccc(S(=O)(=O)N2CCOCC2)c1`, the double-positive events (T cell-vesicle binding) was 13.9% and the mean fluorescence percent response came to 91.1%.

As to `COc1ccc(C(O)c2coc3ccc(O)c(CN(C)C)c23)cc1` (centres undefined), the double-positive events (T cell-vesicle binding) was 21.7% (inactive) and the mean fluorescence percent response is 162%.

For `Cc1ccccc1C(=O)NCC(=O)N1CCN(C/C=C/c2ccccc2)CC1`, the double-positive events (T cell-vesicle binding) is 21.8% and the mean fluorescence percent response was found to be 150%.

For `Cc1ccc(O)c(CCc2ccccc2)n1`, the double-positive events (T cell-vesicle binding) is 22.9% and the mean fluorescence percent response was 120%.

Take `O=C(OCCOc1cccc(Cl)c1)c1ccc(F)c(S(=O)(=O)N2CCOCC2)c1`: the double-positive events (T cell-vesicle binding) is 25.8% (inactive) and the mean fluorescence percent response was 163%.

With `COc1ccc(Nc2ccccc2N)cc1`, the double-positive events (T cell-vesicle binding) is 32.7% (inactive) and the mean fluorescence percent response came to 138%.

Take `COc1ccc(/C=C2\SC(=S)N(CCC(=O)N3CCOCC3)C2=O)cc1`: the double-positive events (T cell-vesicle binding) is 22.1% and the mean fluorescence percent response worked out at 102%.

Values taken from PubChem BioAssay AID504568 (NMMLSC, 2011).
